Where no end group is shown, it is not given here.
Columns and labels:
Assay type in all cases: biochemical, bovine
Gi2 [1] = biological target: T1, Gi2 (Bos taurus, UniProt A7MBH9); assay: GTPγS binding assay, peptide 14-induced Gi2 activation
T1 construct: trimeric Gi2 (i.e., Gi2 αβγ) purified from bovine brain to near homogeneity; from tissue; host or cells: bovine brain
Procedure: Materials and Methods The in vitro assays described below utilize the couplone portion of each of a number of G-coupled receptors, instead of an intact receptor molecule, as a means for activating the corresponding anticouplone or intact G-protein. Except as noted below, Gi2 used in this study was trimeric Gi2 (i.e., Gi2 αβγ) purified from bovine brain to near homogeneity (Katada et al., FEBS Lett. 213:353-358 (1987), stored in buffer A (20 mM hepes/NaOH (pH 7.4), 1 mM EDTA, and 0.7% CHAPS), and diluted≥10 fold for assays. The Gi2 used for the reconstitution experiment was trimeric Gi2 purified from bovine spleen to homogeneity and dissolved in buffer B (Morishita et al., 1989). Gi3 α (Morishita et al., Biochem. Biophys. Res. Commun. 172:249-255 (1990), was purified from bovine spleen and used in combination with 1.5-fold concentrated Gβγ (Katada et al., 1987). This preparation of Gi3 α was 10-20% contaminated by Gi1 α, but not by other G proteins. Trimeric Gs and Gβγ purified from bovine brain to near homogeneity (Katada et al., 1987) were also stored in buffer A.
(§1) GTPγS binding Assay--GTPγS binding to G proteins was assayed at 37° C. in 20 mM Hepes/NaOH buffer (pH 7.4) containing 130 μM MgCl2, 110 μM EDTA and 60 nM [^35 S]GTPγS, as described previously (Okamoto et al., 1990). GTPγS binding to polypeptides was negligible. The total amount of G protein was measured as maximal GTPγS binding at room temperature, as described (Okamoto et al., Cell 67:723-730, 1991a). [^35 S]GTPγS was purchased from DuPont-New England Nuclear. Binding of GTPγS to G proteins obeyed first-order kinetics according to the equation ln[(BT-B)/BT]=-kapp t, where B is the binding at time t and BT is the total binding observable at an infinite time. Thus, the apparent first-order rate constant for GTPγS binding (kapp), which is equal to the slope of the tangent to the GTPγS binding curve at time 0 and represents the actual GTPγS binding rate, was calculated from this equation.
In the experiment illustrated in FIG. 1A, 10 nM Gi2 was incubated with 30 μM peptide 14 (RVGLVRGEKARKGK; SEQ ID NO: 27), the couplone portion of the IGF-II receptor, in the presence of various concentrations of (.quadrature.) ACGi2 (DAVTDVIIKNNLKDC; SEQ ID NO: 3), (567 ) the control Gi2 α Glu297-Asp310 peptide (EAASYIQSKFEKLN; SEQ ID NO: 18), or (.diamond.) the control Gi2 α Lys346-Phe355 peptide (KNNLKDCGLF; SEQ ID NO: 19) for 5 min under the GTPγS binding assay conditions described above, and GTPγS binding to G proteins was measured. The effect of ACGi2 on Gi2 in the absence of peptide 14 is indicated by .box-solid.. Percent stimulation of GTPγS binding was calculated by subtracting the basal fractional binding and dividing by the stimulated fractional binding observed in the absence of ACGi2. The basal fractional binding (=0%) was 0.39 mol GTPγS binding/mol Gi /5 min (5 min^-1). The 100% increase represents the GTPγS binding of 0.85 (5 min^-1). Values in all figures represent the mean ±S.E. of three experiments.
To verify the notion that ACGi2 acts on Gi2 itself, and not on receptor sequences, two series of experiments were performed. First, the dose-response curve for peptide 14 action on Gi2 in the presence of various concentrations of ACGi2 was generated (FIG. 2A). Following incubation of 10 nM Gi2 with various concentrations of peptide 14 in the absence (.quadrature.) or presence of 10 μM (.diamond-solid.) or 30 μM (.box-solid.) ACGi2 for 5 min, GTPγS binding was assayed; fractional GTPγS binding to Gi2 is indicated in the figure.
The second series of experiments investigated the effect of ACGi2 on lower concentrations of Gi2 that had been activated by peptide 14 to the same extent (FIG. 2B). 1 nM Gi2 was incubated for 5 min with 3 μM peptide 14 in the presence of various concentrations of ACGi2, and GTPγS binding was measured. The fractional GTPγS binding at 0% and 100% in this experiment was 0.40 and 0.55 (5 min^-1), respectively. […]

Gs = biological target: T2, Gs (Bos taurus, UniProt P04896); assay: GTPγS binding, βIII-2-induced Gs activation; details: 10 nM Gs, 1 μM βIII-2, 10 min
T2 construct: Trimeric Gs and Gβγ purified from bovine brain to near homogeneity; from tissue; host or cells: bovine brain
Procedure: (§2) Materials and Methods The in vitro assays described below utilize the couplone portion of each of a number of G-coupled receptors, instead of an intact receptor molecule, as a means for activating the corresponding anticouplone or intact G-protein. […]
as §1, with “GTPγS binding to polypeptides was negligible.” left out, “[^35 S]GTPγS was purchased from DuPont-New England Nuclear. Binding of GTPγS to G proteins obeyed first-order kinetics according to the equation ln[(BT-B)/BT]=-kapp t, where B is the binding at time t and BT is the total binding observable at an infinite time.” left out
GTPβS binding was measured following incubation of solubilized Gs at 10 nM with 1 μM βIII-2 (RRSSKFCLKEHKALK; SEQ ID NO: 29) in the presence of ACGi2 for 10 min. […]

Gi2 [2] = biological target: T1, Gi2; assay: GTPγS binding, TrM-peptide 14-induced Gi2 activation in phospholipid vesicles; details: 0.3 nM Gi2 in phospholipid vesicles, 100 nM TrM-peptide 14; read-out: IC50, inhibition of TrM-peptide 14 stimulation of Gi2
Procedure: as §2
as §1, with “GTPγS binding to polypeptides was negligible.” left out, “[^35 S]GTPγS was purchased from DuPont-New England Nuclear. Binding of GTPγS to G proteins obeyed first-order kinetics according to the equation ln[(BT-B)/BT]=-kapp t, where B is the binding at time t and BT is the total binding observable at an infinite time.” left out
Transmembrane domain-connected peptide 14 ["TrM-peptide 14"; […] […] In one of the experiments shown in FIG. 1B, 0.3 nM Gi2 reconstituted in phospholipid vesicles with 100 nM TrM-peptide 14 was exposed to various concentrations of ACGi2, and GTPγS binding was measured (.diamond-solid.). […]

T1 sequence (A7MBH9 2-355 limits assumed): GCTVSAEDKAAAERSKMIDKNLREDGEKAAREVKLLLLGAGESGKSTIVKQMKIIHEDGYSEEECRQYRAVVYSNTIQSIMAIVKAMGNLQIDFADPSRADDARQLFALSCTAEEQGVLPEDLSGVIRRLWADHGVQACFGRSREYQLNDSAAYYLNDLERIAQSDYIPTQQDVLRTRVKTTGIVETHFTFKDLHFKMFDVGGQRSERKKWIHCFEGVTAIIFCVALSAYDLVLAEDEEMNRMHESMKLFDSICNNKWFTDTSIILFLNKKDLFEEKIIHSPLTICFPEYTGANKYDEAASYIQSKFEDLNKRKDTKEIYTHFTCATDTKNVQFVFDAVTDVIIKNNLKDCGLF
T1 sequence (P62871 2-340 partner limits assumed): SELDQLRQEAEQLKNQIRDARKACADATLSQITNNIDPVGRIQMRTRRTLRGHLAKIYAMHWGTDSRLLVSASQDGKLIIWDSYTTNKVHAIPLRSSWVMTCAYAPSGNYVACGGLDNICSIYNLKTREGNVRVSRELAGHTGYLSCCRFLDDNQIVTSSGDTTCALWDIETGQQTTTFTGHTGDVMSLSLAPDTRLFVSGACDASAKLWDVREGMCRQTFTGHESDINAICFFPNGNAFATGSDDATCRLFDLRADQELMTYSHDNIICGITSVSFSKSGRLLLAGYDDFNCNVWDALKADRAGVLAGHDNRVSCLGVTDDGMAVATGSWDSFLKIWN
T1 sequence (P63212 2-68 partner limits assumed): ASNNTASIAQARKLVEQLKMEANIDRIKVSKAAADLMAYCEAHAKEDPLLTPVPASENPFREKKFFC
T2 sequence (P04896 2-394 limits assumed): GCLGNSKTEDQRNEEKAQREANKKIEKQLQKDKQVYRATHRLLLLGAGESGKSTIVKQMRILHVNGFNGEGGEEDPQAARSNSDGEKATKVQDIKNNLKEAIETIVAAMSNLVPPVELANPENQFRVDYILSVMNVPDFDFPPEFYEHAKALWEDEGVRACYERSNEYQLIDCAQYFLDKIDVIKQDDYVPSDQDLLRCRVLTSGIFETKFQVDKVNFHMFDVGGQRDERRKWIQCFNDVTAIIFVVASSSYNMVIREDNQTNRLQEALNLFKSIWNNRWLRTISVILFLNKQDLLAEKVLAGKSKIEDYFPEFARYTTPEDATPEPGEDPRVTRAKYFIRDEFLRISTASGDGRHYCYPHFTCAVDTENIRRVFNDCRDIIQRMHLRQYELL
T2 sequence (P62871 2-340 partner limits assumed): as the sequence (P62871 2-340 partner limits assumed) above
T2 sequence (P63212 2-68 partner limits assumed): as the sequence (P63212 2-68 partner limits assumed) above

With “DAVTDVIIKNNLKDC [ACGi2, DAVTDVIIKNNLKDC]” the IC50 (Gi2 [1]; 10 nM Gi2, 30 μM peptide 14, 5 min, read-out: IC50, inhibition of peptide 14-induced GTPγS binding to Gi2) was roughly 3 µM, the inhibition at 3 µM (Gi2 [1]; at 3 μM ACGi2 (so in the source), read-out: inhibition of stimulation of Gi2) was 100% and the “maximal inhibition of βIII-2-stimulated Gs” value (Gs) was 40%. The IC50 (Gi2 [2]) was 3 µM.

Source: patent US5559209A, “Regulator regions of G proteins” (The General Hospital Corporation, priority 1993, dated 1996)
